Experimental findings from PubChem BioAssay AID328 (DTP/NCI, 2004) are described below.

The subject of this test is BDF1 mice, P388 leukemia ip, median survival T/C. As to the kind of experiment: NCI In Vivo Anticancer Drug Screen. Data for tumor model P388 Leukemia (intraperitoneal) in B6D2F1 (BDF1) mice. To be noted: endpoint: median survival time, higher = longer survival. A digest of the protocol: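 Transplantable tumour in mice; compound vs vehicle dosing; survival scored; ratio of treated to control reported.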

Setting [1] is: dose: 100.0 mg/kg/injection, schedule: Q01DX009 (ip), vehicle: saline with Tween-80.
Setting [2] is: dose: 200.0 mg/kg/injection, schedule: Q01DX009 (ip), vehicle: saline with Tween-80.
[3] abbreviates: dose: 50.0 mg/kg/injection, schedule: Q01DX009 (ip), vehicle: saline with Tween-80.
Where [4] appears, read: dose: 6.0 mg/kg/injection, schedule: Q04DX003 (ip), vehicle: saline.
The mark [5] stands for this setting: dose: 100.0 mg/kg/injection, schedule: Q04DX003 (ip), vehicle: saline with Tween-80.
Setting [6] is: dose: 200.0 mg/kg/injection, schedule: Q04DX003 (ip), vehicle: saline with Tween-80.
[7] abbreviates: dose: 400.0 mg/kg/injection, schedule: Q04DX003 (ip), vehicle: saline with Tween-80.

SMILES strings stand for the structures. Values joined by “and” are separate entries in the source; they are usually repeats but may differ in a detail not shown here. Equal values may be shown once. Toxic doses and inconclusive results are not listed.

Take `COc1ccc(-c2c3c(cc4cc5c(cc24)OCO5)C(=O)OC3)cc1OC`: the T/C by setting is: (dose: 0.25 mg/kg/injection, schedule: Q01DX009 (ip), vehicle: saline + alcohol) 95 % of control; (dose: 0.5 mg/kg/injection, schedule: Q01DX009 (ip), vehicle: saline + alcohol) 88 % of control; (dose: 1.0 mg/kg/injection, schedule: Q01DX009 (ip), vehicle: saline + alcohol) 95 % of control; (dose: 1.5 mg/kg/injection, schedule: Q01DX009 (ip), vehicle: saline + alcohol) 104 % of control; (dose: 2.0 mg/kg/injection, schedule: Q01DX009 (ip), vehicle: saline + alcohol) 88 % of control; (dose: 3.0 mg/kg/injection, schedule: Q01DX009 (ip), vehicle: saline + alcohol) 93 % of control. Moreover, the T/C was 95 % of control (dose: 4.0 mg/kg/injection, schedule: Q01DX009 (ip), vehicle: saline + alcohol); 111 % of control (dose: 6.0 mg/kg/injection, schedule: Q01DX009 (ip), vehicle: saline + alcohol); 104 % of control (dose: 8.0 mg/kg/injection, schedule: Q01DX009 (ip), vehicle: saline + alcohol); 101 % of control (dose: 12.0 mg/kg/injection, schedule: Q01DX009 (ip), vehicle: saline + alcohol); 93 % of control (dose: 24.0 mg/kg/injection, schedule: Q01DX009 (ip), vehicle: saline + alcohol); 94 % of control (dose: 25.0 mg/kg/injection, schedule: Q01DX009 (ip), vehicle: saline + alcohol). Moreover, the T/C reads like this: (dose: 50.0 mg/kg/injection, schedule: Q01DX009 (ip), vehicle: saline + alcohol) 94 % of control; (dose: 100.0 mg/kg/injection, schedule: Q01DX009 (ip), vehicle: saline + alcohol) 97 % of control; (dose: 200.0 mg/kg/injection, schedule: Q01DX009 (ip), vehicle: saline + alcohol) 86 % of control.

In the case of `Clc1ccc(/C(=C(\Br)c2ccccc2)c2ccccc2)cc1`, the T/C under setting [1] is 104 % of control and 100 % of control; the T/C under setting [2] is 86 % of control and 100 % of control; the T/C (dose: 400.0 mg/kg/injection, schedule: Q01DX009 (ip), vehicle: saline with Tween-80) is 95 % of control and 90 % of control.

As for `CCCCCCCCCCC(=O)CCCCC`, the T/C is, setting by setting: (dose: 100.0 mg/kg/injection, schedule: Q01DX009 (ip), vehicle: other) 90 % of control; (dose: 200.0 mg/kg/injection, schedule: Q01DX009 (ip), vehicle: other) 100 % of control; (dose: 400.0 mg/kg/injection, schedule: Q01DX009 (ip), vehicle: other) 110 % of control.

Regarding `CCOC(=O)/C=C(C)/C=C/C=C(C)/C=C/c1c(C)cc(OC)c(C)c1C`, the T/C reads like this: under setting [3], 96 % of control; under setting [1], 91 % of control; under setting [2], 98 % of control.

Take `O=P(CCCl)(OCCCl)N1CCCCC1` (configuration not stated): the T/C by setting is: (dose: 50.0 mg/kg/injection, schedule: Q04DX003 (ip), vehicle: saline) 104 % of control; (dose: 100.0 mg/kg/injection, schedule: Q01DX009 (ip), vehicle: saline) 104 % of control; (dose: 100.0 mg/kg/injection, schedule: Q04DX003 (ip), vehicle: saline) 108 % of control; (dose: 200.0 mg/kg/injection, schedule: Q01DX009 (ip), vehicle: saline) 104 % of control; (dose: 400.0 mg/kg/injection, schedule: Q01DX009 (ip), vehicle: saline) 109 % of control.

Consider `C=C(Cl)c1c(C)cc(C)c(CC#N)c1C`, for which the T/C is 100 % of control (dose: 12.5 mg/kg/injection, schedule: Q04DX003 (ip), vehicle: DMSO); 113 % of control (dose: 25.0 mg/kg/injection, schedule: Q04DX003 (ip), vehicle: DMSO); 100 % of control (dose: 50.0 mg/kg/injection, schedule: Q04DX003 (ip), vehicle: DMSO).

With `CCOC(=O)/C=C(\C)Sc1cc(O)c2ccccc2c1O`, the T/C reads like this: (dose: 3.13 mg/kg/injection, schedule: Q01DX009 (ip), vehicle: saline with Tween-80) 102 % of control; (dose: 6.25 mg/kg/injection, schedule: Q01DX009 (ip), vehicle: saline with Tween-80) 103 % of control.

As to `ClCCN(CCCl)CCNc1ccnc2cc(Cl)ccc12`, the T/C is, setting by setting: (dose: 0.13 mg/kg/injection, schedule: Q01DX009 (ip), vehicle: saline) 105 % of control; (dose: 0.5 mg/kg/injection, schedule: Q01DX009 (ip), vehicle: saline) 100 % of control; (dose: 1.0 mg/kg/injection, schedule: Q04DX003 (ip), vehicle: saline) 172 % of control; (dose: 1.32 mg/kg/injection, schedule: Q01DX009 (ip), vehicle: saline) 154 % of control; (dose: 2.0 mg/kg/injection, schedule: Q01DX009 (ip), vehicle: saline) 154 % of control; (dose: 2.0 mg/kg/injection, schedule: Q04DX003 (ip), vehicle: saline) 109 % of control. The T/C reads like this: (dose: 3.0 mg/kg/injection, schedule: Q01DX009 (ip), vehicle: saline) 181 % of control; (dose: 4.0 mg/kg/injection, schedule: Q04DX003 (ip), vehicle: saline) 154 % of control; under setting [4], 159 % of control; (dose: 12.5 mg/kg/injection, schedule: Q04DX003 (ip), vehicle: saline) 163 % of control; (dose: 25.0 mg/kg/injection, schedule: Q04DX003 (ip), vehicle: saline) 86 % of control.

Regarding `CCN(CC)CCCC(C)Nc1cc(C)nc2cc(N(C)C)ccc12` (configuration not stated), the T/C reads like this: (dose: 6.25 mg/kg/injection, schedule: Q01DX009 (ip), vehicle: Klucel (hydroxypropylcellulose) (HPC)) 117 % of control; (dose: 12.5 mg/kg/injection, schedule: Q01DX009 (ip), vehicle: Klucel (hydroxypropylcellulose) (HPC)) 108 % of control.

With `C1=C(c2ccccc2)C(c2ccccc2)=C(c2ccccc2)C(c2ccccc2)C(c2ccccc2)=N1` (configuration not stated), the T/C is 100 % of control under setting [3], 92 % of control under setting [1] and 106 % of control under setting [2].

As to `CCCCOC(=O)C(N)Cc1ccc(OC)c(N(CCCl)CCCl)c1` (configuration not stated), the T/C is, setting by setting: (dose: 3.0 mg/kg/injection, schedule: Q04DX003 (ip), vehicle: saline) 250 % of control; under setting [4], 108 % of control.

Turning to `Cn1nnnc1N/N=C/c1ccccc1`, the T/C was 110 % of control under setting [5], 115 % of control under setting [6] and 100 % of control under setting [7].

For `Cc1nc2ccccc2n1C[c-]1[c-][c-][c-][c-]1.[Fe].[c-]1[c-][c-][cH-][c-]1`, the T/C is 91 % of control under setting [3], 113 % of control under setting [1] and 105 % of control under setting [2].

As to `O=S1(=O)C=C(Cl)C2C3CC(C(Cl)C3Cl)C21` (configuration not stated), the T/C is 100 % of control (dose: 7.5 mg/kg/injection, schedule: Q01DX009 (ip), vehicle: saline with Tween-80); 113 % of control (dose: 15.0 mg/kg/injection, schedule: Q01DX009 (ip), vehicle: saline with Tween-80); 104 % of control (dose: 30.0 mg/kg/injection, schedule: Q01DX009 (ip), vehicle: saline with Tween-80).

Consider `COc1ccc(C2=CCCCC2)cc1`, for which the T/C was 103 % of control under setting [1]; 104 % of control under setting [5]; 103 % of control under setting [2]; 104 % of control under setting [6]; 95 % of control under setting [7].

With `CCCC(O)(CCC)CC1=NC(C)(C)CO1`, the T/C is 110 % of control (dose: 75.0 mg/kg/injection, schedule: Q04DX003 (ip), vehicle: saline sonified); 105 % of control (dose: 150.0 mg/kg/injection, schedule: Q04DX003 (ip), vehicle: saline sonified); 100 % of control (dose: 300.0 mg/kg/injection, schedule: Q04DX003 (ip), vehicle: saline sonified).

Take `Nc1nc(N)c2cc(Sc3ccc4ccccc4c3)ccc2n1`: the T/C is, setting by setting: under setting [3], 113 % of control; under setting [1], 123 % of control.

As to `O=C(/C=C\c1ccc(O)cc1)c1ccccc1`, the T/C runs as follows: (dose: 100.0 mg/kg/injection, schedule: Q01DX009 (ip), vehicle: Klucel (hydroxypropylcellulose) (HPC)) 105 % of control; (dose: 100.0 mg/kg/injection, schedule: Q04DX003 (ip), vehicle: Klucel (hydroxypropylcellulose) (HPC)) 108 % of control; (dose: 200.0 mg/kg/injection, schedule: Q01DX009 (ip), vehicle: Klucel (hydroxypropylcellulose) (HPC)) 110 % of control; (dose: 200.0 mg/kg/injection, schedule: Q04DX003 (ip), vehicle: Klucel (hydroxypropylcellulose) (HPC)) 100 % of control; (dose: 400.0 mg/kg/injection, schedule: Q01DX009 (ip), vehicle: Klucel (hydroxypropylcellulose) (HPC)) 110 % of control; (dose: 400.0 mg/kg/injection, schedule: Q04DX003 (ip), vehicle: Klucel (hydroxypropylcellulose) (HPC)) 104 % of control.
